Laboratory results from the supplement of paper PMC11451515.

Assays:
Details in all cases: 48 h
NOMO1 = test: AUC of viability dose-response curve (% viability x log10 dose units); higher = less sensitive
Procedure, shortened: (§1)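 Over 48 h at 37°C, leukemia cells in 1536-well plates (500 or 1000 cells/well), adapted to each medium, received library compounds in DMSO at 11 threefold doses from 47 μM to 0.79 nM. CellTiter-Glo One luminescence, normalised per plate to DMSO and cell-free wells, was fitted by a four-parameter log-logistic function of log10 dose. The area under the curve was then integrated by trapezoidal rule, after scaling curves above full viability and removing those that failed quality control.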

P12-Ichikawa [1] = test: as above
Procedure, shortened: as §1

SEM cells [2] = test: as above
Procedure, shortened: as §1

SEM cells [3] = test: cell viability relative to DMSO control; higher = less cytotoxic
Procedure, shortened: (§2)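 NOMO1 or SEM (500 cells/well) or P12-Ichikawa (1000 cells/well) leukemia cells were adapted for at least four passages in each medium. They were seeded in 1536-well plates (5 μl) and pin-dosed with library compounds in DMSO over an 11-point threefold series, 47 μM to 0.79 nM. CellTiter-Glo One luminescence was read after 48 h at 37°C. Viability is the per-plate percentage relative to DMSO wells, with cell-free wells as background.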

P12-Ichikawa [4] = test: as above
Procedure, shortened: as §2

C[S+](=O)([O-])c1ccc([C@@H](O)[C@@H](CO)NC(=O)C(Cl)Cl)cc1
AUC of viability dose-response curve
Details	NOMO1	P12-Ichikawa [1]	SEM cells [2]
HPLM + 10% dialyzed FBS	445	456	432
RPMI 5 mM glucose + 10% FBS	476	431	421
RPMI 5 mM glucose + 10% dialyzed FBS	455	420	450

Cc1c(CN2CCN([S+](C)(=O)[O-])CC2)sc2c(N3CCOCC3)nc(-c3cnc(N)nc3)nc12
SEM cells [3], RPMI 5 mM glucose + 10% dialyzed FBS
Details	cell viability [%]
0.000781 µM	118
0.00234 µM	134
0.00702 µM	122
0.0211 µM	105
0.0632 µM	87.3
0.19 µM	86.6
0.569 µM	98.8
1.71 µM	57.9
5.12 µM	50.8
15.4 µM	50.6
46.1 µM	44

AUC of viability dose-response curve
Details	NOMO1	P12-Ichikawa [1]	SEM cells [2]
HPLM + 10% dialyzed FBS	305	371	287
RPMI 5 mM glucose + 10% FBS	350	336	304
RPMI 5 mM glucose + 10% dialyzed FBS	316	332	328

CC(=O)OCC(=O)[C@@]1(O)CC[C@H]2[C@@H]3CCC/4=C/C(=O)CC[C@]4(C)[C@H]3C(=O)C[C@]12C
SEM cells [3], HPLM + 10% dialyzed FBS
Details	cell viability [%]
0.000781 µM	106
0.00234 µM	109
0.00702 µM	112
0.0211 µM	101
0.0632 µM	107
0.19 µM	117
0.569 µM	84.5
1.71 µM	51.8
5.12 µM	112
15.4 µM	111
46.1 µM	118

AUC of viability dose-response curve
Details	NOMO1	P12-Ichikawa [1]	SEM cells [2]
HPLM + 10% dialyzed FBS	464	460	466
RPMI 5 mM glucose + 10% FBS	476	470	466
RPMI 5 mM glucose + 10% dialyzed FBS	459	430	445

CCn1c(=O)c2c(nc(/C=C/c3ccc(OC)c(OC)c3)n2C)n(CC)c1=O
AUC of viability dose-response curve
Details	NOMO1	P12-Ichikawa [1]	SEM cells [2]
HPLM + 10% dialyzed FBS	425	467	470
RPMI 5 mM glucose + 10% FBS	424	451	463
RPMI 5 mM glucose + 10% dialyzed FBS	436	464	472

Nc1cccc([S+](=O)([O-])N2CCCN([S+](=O)([O-])c3ccc4c(c3)OCCO4)CC2)c1
AUC of viability dose-response curve
Details	NOMO1	P12-Ichikawa [1]	SEM cells [2]
HPLM + 10% dialyzed FBS	445	444	460
RPMI 5 mM glucose + 10% FBS	464	464	434
RPMI 5 mM glucose + 10% dialyzed FBS	447	460	437

CN1CC[C@H]([C@@H](O)C1)C2=C(O)C=C(O)C3=C2O\C(=C/C3=O)C4=CC=CC=C4Cl
SEM cells [3], HPLM + 10% dialyzed FBS
Details	cell viability [%]
0.000781 µM	104
0.00234 µM	121
0.00702 µM	134
0.0211 µM	132
0.0632 µM	128
0.19 µM	131
0.569 µM	23
1.71 µM	10.1
5.12 µM	6.69
15.4 µM	5.22
46.1 µM	6.07

AUC of viability dose-response curve
Details	NOMO1	P12-Ichikawa [1]	SEM cells [2]
HPLM + 10% dialyzed FBS	265	306	281
RPMI 5 mM glucose + 10% FBS	288	301	276
RPMI 5 mM glucose + 10% dialyzed FBS	285	300	282

O=C(CN1C(=O)C2(CCCC2)NC[C@H]1c1cc(F)cc(F)c1)Nc1ccc2c(c1)C[C@@]1(C2)C(=O)Nc2ncccc21
cell viability [%], SEM cells [3]
Details	HPLM + 10% dialyzed FBS	RPMI 5 mM glucose + 10% FBS
0.000781 µM	109	123
0.00234 µM	104	104
0.00702 µM	119	126
0.0211 µM	139	142
0.0632 µM	125	131
0.19 µM	131	136
0.569 µM	132	145
1.71 µM	140	131
5.12 µM	142	135
15.4 µM	114	129
46.1 µM	104	129

AUC of viability dose-response curve
Details	NOMO1	P12-Ichikawa [1]	SEM cells [2]
HPLM + 10% dialyzed FBS	445	472	461
RPMI 5 mM glucose + 10% FBS	459	466	463
RPMI 5 mM glucose + 10% dialyzed FBS	467	471	446

C=C(c1ccc(C(=O)O)cc1)c1cc2c(cc1C)C(C)(C)CCC2(C)C
Details	cell viability [%]
P12-Ichikawa [4], HPLM + 10% dialyzed FBS, 0.000781 µM	113
P12-Ichikawa [4], HPLM + 10% dialyzed FBS, 0.00234 µM	119
P12-Ichikawa [4], HPLM + 10% dialyzed FBS, 0.00702 µM	121
P12-Ichikawa [4], HPLM + 10% dialyzed FBS, 0.0211 µM	121
P12-Ichikawa [4], HPLM + 10% dialyzed FBS, 0.0632 µM	126
P12-Ichikawa [4], HPLM + 10% dialyzed FBS, 0.19 µM	129
P12-Ichikawa [4], HPLM + 10% dialyzed FBS, 0.569 µM	125
P12-Ichikawa [4], HPLM + 10% dialyzed FBS, 1.71 µM	120
P12-Ichikawa [4], HPLM + 10% dialyzed FBS, 5.12 µM	124
P12-Ichikawa [4], HPLM + 10% dialyzed FBS, 15.4 µM	117
P12-Ichikawa [4], HPLM + 10% dialyzed FBS, 46.1 µM	114
SEM cells [3], RPMI 5 mM glucose + 10% dialyzed FBS, 0.000781 µM	95
SEM cells [3], RPMI 5 mM glucose + 10% dialyzed FBS, 0.00234 µM	110
SEM cells [3], RPMI 5 mM glucose + 10% dialyzed FBS, 0.00702 µM	134
SEM cells [3], RPMI 5 mM glucose + 10% dialyzed FBS, 0.0211 µM	116
SEM cells [3], RPMI 5 mM glucose + 10% dialyzed FBS, 0.0632 µM	116
SEM cells [3], RPMI 5 mM glucose + 10% dialyzed FBS, 0.19 µM	125
SEM cells [3], RPMI 5 mM glucose + 10% dialyzed FBS, 0.569 µM	120
SEM cells [3], RPMI 5 mM glucose + 10% dialyzed FBS, 1.71 µM	118
SEM cells [3], RPMI 5 mM glucose + 10% dialyzed FBS, 5.12 µM	111
SEM cells [3], RPMI 5 mM glucose + 10% dialyzed FBS, 15.4 µM	99.3
SEM cells [3], RPMI 5 mM glucose + 10% dialyzed FBS, 46.1 µM	83.5

AUC of viability dose-response curve
Details	NOMO1	P12-Ichikawa [1]	SEM cells [2]
HPLM + 10% dialyzed FBS	422	477	465
RPMI 5 mM glucose + 10% FBS	434	470	465
RPMI 5 mM glucose + 10% dialyzed FBS	431	468	461

Cc1cc(NC(=O)Nc2ccc(N(C)C)cc2)c2cc(F)cc(F)c2n1
AUC of viability dose-response curve
Details	NOMO1	P12-Ichikawa [1]	SEM cells [2]
HPLM + 10% dialyzed FBS	457	475	465
RPMI 5 mM glucose + 10% FBS	466	461	468
RPMI 5 mM glucose + 10% dialyzed FBS	440	454	448

COc1ccc(/C=C\c2cc(OC)c(OC)c(OC)c2)cc1NC(=O)[C@H](N)CO
cell viability [%], RPMI 5 mM glucose + 10% FBS
Details	P12-Ichikawa [4]	SEM cells [3]
0.000781 µM	121	104
0.00234 µM	144	118
0.00702 µM	125	115
0.0211 µM	50.9	58.1
0.0632 µM	24.6	15
0.19 µM	13.8	11.1
0.569 µM	9.28	14.7
1.71 µM	7.31	7.29
5.12 µM	8.08	6.77
15.4 µM	4.52	3.55
46.1 µM	4.09	3.19

AUC of viability dose-response curve
Details	NOMO1	P12-Ichikawa [1]	SEM cells [2]
HPLM + 10% dialyzed FBS	209	179	190
RPMI 5 mM glucose + 10% FBS	188	157	167
RPMI 5 mM glucose + 10% dialyzed FBS	206	202	186
